pIC50: −log10 of the molar value.
How the values were obtained:
Rattus norvegicus [1] = assay: (§1) Oral bioavailability in Sprague-Dawley rat at 5 mg/kg administered as single dose by LC-MS/MS analysis; assay type: ADME, organism-based; details: in vivo
Rattus norvegicus [2] = assay: (§2) AUC (0 to infinity) in Sprague-Dawley rat at 2 mg/kg, iv administered as single dose by LC-MS/MS analysis; assay type: ADME, organism-based; set-up: dose 2 mg/kg, route intravenous, time infinity; details: in vivo
[3] = Cmax in Sprague-Dawley rat at 5 mg/kg, po administered as single dose by LC-MS/MS analysis; assay type: ADME, organism-based; set-up: dose 5 mg/kg, route oral; details: in vivo
[4] = AUC (0 to 24 hrs) in Sprague-Dawley rat at 2 mg/kg, iv administered as single dose by LC-MS/MS analysis; assay type: ADME, organism-based; set-up: dose 2 mg/kg, time < 24 hr, route intravenous; details: in vivo
[5] = Half life in Sprague-Dawley rat at 2 mg/kg, iv administered as single dose by LC-MS/MS analysis; assay type: ADME, organism-based; details: in vivo
[6] = Volume of distribution at steady state in Sprague-Dawley rat at 2 mg/kg, iv administered as single dose by LC-MS/MS analysis; assay type: ADME, organism-based; details: in vivo, read-out: Vdss
Rattus norvegicus [7] = assay: (§3) AUC (0 to infinity) in Sprague-Dawley rat at 5 mg/kg, po administered as single dose by LC-MS/MS analysis; assay type: ADME, organism-based; set-up: dose 5 mg/kg, route oral, time infinity; details: in vivo
[8] = AUC (0 to 24 hrs) in Sprague-Dawley rat at 5 mg/kg, po administered as single dose by LC-MS/MS analysis; assay type: ADME, organism-based; set-up: time < 24 hr, dose 5 mg/kg, route oral; details: in vivo
Homo sapiens = species on record: Homo sapiens; assay: Selectivity ratio of IC50 for CDK1/Cyclin-A2 (unknown origin) to IC50 for CDK6/Cyclin-D3 (unknown origin)
[9] = Clearance in Sprague-Dawley rat at 2 mg/kg, iv administered as single dose by LC-MS/MS analysis; assay type: ADME, organism-based; details: in vivo
[10] = Unbound brain to plasma concentration ratio in mouse at 1 mg/kg, iv after 5 mins; assay type: ADME, organism-based; details: read-out: K(p,uu,brain)
[11] = as §1; assay type: ADME, organism-based; details: Sprague-Dawley, in vivo
[12] = Half life in CD-1 mouse liver microsomes at 10 uM preincubated for 5 mins followed by NADP addition by LC-MS/MS analysis; assay type: ADME, microsome
[13] = Stability in CD-1 mouse liver microsomes assessed as parent compound remaining at 10 uM preincubated for 5 mins followed by NADP addition measured after 60 mins by LC-MS/MS analysis; assay type: ADME, microsome; details: read-out: Stability
CDK6/cyclin D3 = CDK6/cyclin D3 (Homo sapiens, UniProt Q00534); assay: Inhibition of CDK6/Cyclin-D3 (unknown origin) using histoneH1 as substrate after 90 mins by ADP-Glo assay; assay type: protein-complex assay
Sequence of CDK6/cyclin D3 (P30281 whole entry): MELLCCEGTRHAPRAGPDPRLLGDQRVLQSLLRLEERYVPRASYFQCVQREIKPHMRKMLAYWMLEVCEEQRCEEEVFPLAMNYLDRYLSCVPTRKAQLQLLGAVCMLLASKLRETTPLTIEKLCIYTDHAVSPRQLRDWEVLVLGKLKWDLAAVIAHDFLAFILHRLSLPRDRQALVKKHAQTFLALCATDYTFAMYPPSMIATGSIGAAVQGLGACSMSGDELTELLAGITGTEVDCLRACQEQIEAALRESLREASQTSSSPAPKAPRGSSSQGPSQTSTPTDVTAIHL
Sequence of CDK6/cyclin D3 (Q00534 whole entry): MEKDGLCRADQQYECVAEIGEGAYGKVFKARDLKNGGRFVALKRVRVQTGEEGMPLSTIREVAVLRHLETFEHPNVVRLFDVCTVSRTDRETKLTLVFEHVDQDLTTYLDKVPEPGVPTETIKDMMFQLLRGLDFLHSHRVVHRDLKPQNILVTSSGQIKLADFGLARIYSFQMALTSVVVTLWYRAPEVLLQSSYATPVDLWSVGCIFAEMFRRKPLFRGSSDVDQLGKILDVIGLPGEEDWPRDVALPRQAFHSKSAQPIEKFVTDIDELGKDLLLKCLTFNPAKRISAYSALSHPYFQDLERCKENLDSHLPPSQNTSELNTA

[14] = as §2; assay type: ADME, organism-based; set-up: dose 2 mg/kg, route intravenous, time infinity; details: Sprague-Dawley, in vivo
[15] = Half life in Sprague-Dawley rat at 5 mg/kg, po administered as single dose by LC-MS/MS analysis; assay type: ADME, organism-based; details: in vivo
[16] = Stability in CD-1 mouse liver microsomes assessed as parent compound remaining at 10 uM measured after 60 mins in absence of NADPH-regenerating system by LC-MS/MS analysis; assay type: ADME, microsome; details: read-out: Stability
[17] = Intrinsic clearance in CD-1 mouse liver microsomes at 10 uM preincubated for 5 mins followed by NADP addition by LC-MS/MS analysis; assay type: ADME, microsome; details: read-out: CLH
[18] = as §3; assay type: ADME, organism-based; set-up: dose 5 mg/kg, route oral, time infinity; details: Sprague-Dawley, in vivo
[19] = target: Cyclin-dependent kinase 4/cyclin D1 (Homo sapiens, UniProt P11802); assay: Inhibition of CDK4/Cyclin-D1 (unknown origin) using histone-H1 as substrate after 90 mins by ADP-Glo assay; assay type: protein-complex assay
Sequence of Cyclin-dependent kinase 4/cyclin D1 (P11802 whole entry): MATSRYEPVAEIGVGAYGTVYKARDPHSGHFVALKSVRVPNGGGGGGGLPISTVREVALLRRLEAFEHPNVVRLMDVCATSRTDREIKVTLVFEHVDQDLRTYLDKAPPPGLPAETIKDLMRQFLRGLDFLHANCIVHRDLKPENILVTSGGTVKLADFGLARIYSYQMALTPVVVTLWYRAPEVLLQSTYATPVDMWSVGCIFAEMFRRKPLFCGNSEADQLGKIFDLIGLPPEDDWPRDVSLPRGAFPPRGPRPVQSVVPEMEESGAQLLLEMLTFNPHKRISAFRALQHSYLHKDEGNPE
Sequence of Cyclin-dependent kinase 4/cyclin D1 (P24385 whole entry, further chain): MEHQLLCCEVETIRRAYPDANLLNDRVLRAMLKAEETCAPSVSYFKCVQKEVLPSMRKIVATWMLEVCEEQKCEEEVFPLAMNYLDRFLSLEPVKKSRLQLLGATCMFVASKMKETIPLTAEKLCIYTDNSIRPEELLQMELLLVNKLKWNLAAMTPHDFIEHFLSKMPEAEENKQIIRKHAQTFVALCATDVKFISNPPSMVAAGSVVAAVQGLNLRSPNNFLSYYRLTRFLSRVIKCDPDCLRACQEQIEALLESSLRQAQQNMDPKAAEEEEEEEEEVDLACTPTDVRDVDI

[20] = Unbound brain to plasma concentration ratio in CD-1 nude mouse at 100 mg/kg, po; assay type: ADME, organism-based; details: read-out: K(p,uu,brain)
[21] = Unbound brain to plasma concentration ratio in mouse at 30 mg/kg, po; assay type: ADME, organism-based; details: read-out: K(p,uu,brain)
U-87 MG = assay: Antiproliferative activity against human U87MG cells after 72 hrs by DAPI staining based assay; assay type: functional, cell-based, U-87MG ATCC

## CCN1CCN(c2ccc(Nc3ncc(F)c(-c4ccc5c(c4)C4(CCCC4)C(C)=N5)n3)nc2)CC1
Rattus norvegicus [1]
  F: 25%
Rattus norvegicus [2]
  AUC: 2000 ng·h/mL
[3]
  Cmax: 99.9 ng/mL
[4]
  AUC(0-t) at 24 h: 1900 ng·h/mL
[5]
  half-life: 366 min
[6]
  Vd: 7.1 L/kg
Rattus norvegicus [7]
  AUC: 3651 ng·h/mL
[8]
  AUC(0-t) at 24 h: 1200 ng·h/mL
Homo sapiens
  Ratio IC50: 18
[9]
  clearance: 16.9 mL/min/kg

## CC(=O)c1c(C)c2cnc(Nc3ccc(N4CCNCC4)cn3)nc2n(C2CCCC2)c1=O [PALBOCICLIB]
[10]
  Kp uu at 5 min: 0.01

## CCN1CCN(Cc2ccc(Nc3ncc(F)c(-c4cc(F)c5c(c4)C4(CCCC4)C(C)=N5)n3)nc2)CC1
[11]
  bioavailability: 48%
[12]
  half-life at 10 µM: 8.1 min
[13]
  remaining at 1 h, 10 µM: 1%
CDK6/cyclin D3
  pIC50: 8.70
[14]
  AUC(0-inf): 686 ng·h/mL
[3]
  Cmax: 77.1 ng/mL
[4]
  AUC(0-t) at 24 h: 670 ng·h/mL
[15]
  half-life: 216 min
[16]
  remaining at 1 h, 10 µM: 81.1%
[17]
  microsomal CLint at 10 µM: 171 µL/min/mg
[5]
  half-life: 276 min
[6]
  Vd: 16.7 L/kg
[18]
  AUC(0-inf): 827 ng·h/mL
[8]
  AUC(0-t) at 24 h: 813 ng·h/mL
[9]
  clearance: 48.9 mL/min/kg
[19]
  pIC50: 7.92

## CN(C)C(=O)c1cc2cnc(Nc3ccc(N4CCNCC4)cn3)nc2n1C1CCCC1 [RIBOCICLIB]
[20]
  Kp uu: 0.12

## CCN1CCN(Cc2ccc(Nc3ncc(F)c(-c4cc(F)c5nc(C)n(C(C)C)c5c4)n3)nc2)CC1 [ABEMACICLIB]
[21]
  Kp uu: 0.03
U-87 MG
  pIC50: 7.32

— ChEMBL document CHEMBL4251601 (Eur J Med Chem, 2018)
